ChEMBL document CHEMBL1137935 (Bioorg Med Chem Lett, 2004)
Values belong to the molecule of their own block, whether it stands above or below them. Activity calls are given as the source filed them. The calls are words filed in the database; no cut-off is given here.

Key:
[1] = target: T1, Adenosine receptor A1 (Cavia porcellus) (UniProt P47745); experiment: Binding affinity against […] using [35S]GTP-gamma-S, radioligand in guinea pig.; format: functional
T1 sequence (whole entry): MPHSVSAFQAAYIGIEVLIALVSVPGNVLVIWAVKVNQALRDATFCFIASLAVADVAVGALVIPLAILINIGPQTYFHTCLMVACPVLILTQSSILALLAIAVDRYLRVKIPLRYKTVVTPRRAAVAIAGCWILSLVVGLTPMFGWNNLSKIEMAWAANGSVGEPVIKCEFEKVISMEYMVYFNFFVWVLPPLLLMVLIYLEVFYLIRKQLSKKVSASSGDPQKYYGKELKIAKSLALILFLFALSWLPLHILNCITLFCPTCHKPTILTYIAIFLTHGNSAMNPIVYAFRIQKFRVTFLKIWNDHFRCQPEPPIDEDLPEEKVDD

[2] = target: T1, Adenosine receptor A1 (Cavia porcellus)
[3] = target: T1, Adenosine receptor A1 (Cavia porcellus); experiment: Binding affinity against adenosine A1 receptor using [3H]CPX in guinea pig DDT membrane; 400+/-38
[4] = target: T1, Adenosine receptor A1 (Cavia porcellus); experiment: Binding affinity against adenosine A1 receptor using [3H]CCPA in guinea pig DDT membrane; 243+/-107
[5] = target: T1, Adenosine receptor A1 (Cavia porcellus); experiment: Binding affinity against adenosine A1 receptor using [3H]CPX in guinea pig DDT membrane; 5855+/-1208
[6] = target: T1, Adenosine receptor A1 (Cavia porcellus); experiment: Binding affinity against adenosine A1 receptor using [3H]-CPX in guinea pig DDT membrane; 4191+/-922
[7] = tested on: Adenosine receptor A1 (Cavia porcellus); experiment: Binding affinity against […] using [35S]GTP-gamma-S, in guinea pig; not active
[8] = target: T1, Adenosine receptor A1 (Cavia porcellus); experiment: Binding affinity against adenosine A1 receptor using [3H]CPX in guinea pig DDT membrane; format: cell membranes
[9] = target: T1, Adenosine receptor A1 (Cavia porcellus); experiment: Binding affinity against adenosine A1 receptor using [3H]CPX in guinea pig DDT membrane; 913+/-517
[10] = target: T1, Adenosine receptor A1 (Cavia porcellus); remark: listed apart in the source
[11] = target: T1, Adenosine receptor A1 (Cavia porcellus); remark: listed apart in the source
[12] = target: T1, Adenosine receptor A1 (Cavia porcellus); experiment: Binding affinity against adenosine A1 receptor using [3H]CPX in guinea pig DDT membrane; 338+/-98
[13] = target: T1, Adenosine receptor A1 (Cavia porcellus); experiment: Binding affinity against adenosine A1 receptor using [3H]CCPA in guinea pig DDT membrane; 96+/-11
[14] = target: T1, Adenosine receptor A1 (Cavia porcellus); experiment: Binding affinity against adenosine A1 receptor using [3H]-CCPA in guinea pig DDT membrane; 180+/-23
[15] = target: T1, Adenosine receptor A1 (Cavia porcellus); experiment: Binding affinity against adenosine A1 receptor using [3H]CPX in guinea pig DDT membrane; 1571+/-245
[16] = target: T1, Adenosine receptor A1 (Cavia porcellus); remark: listed apart in the source
[17] = target: T1, Adenosine receptor A1 (Cavia porcellus); experiment: Binding affinity against adenosine A1 receptor using [3H]CCPA in guinea pig DDT membrane; format: cell membranes
[18] = target: T1, Adenosine receptor A1 (Cavia porcellus); experiment: Binding affinity against adenosine A1 receptor using [3H]CPX in guinea pig DDT membrane; 1666+/-556
[19] = target: T1, Adenosine receptor A1 (Cavia porcellus); experiment: Binding affinity against adenosine A1 receptor using [3H]CPX in guinea pig DDT membrane; 343+/-137
[20] = target: T1, Adenosine receptor A1 (Cavia porcellus); experiment: Binding affinity against adenosine A1 receptor using [3H]CCPA in guinea pig DDT membrane; 2400+/-16
[21] = target: T1, Adenosine receptor A1 (Cavia porcellus); experiment: Binding affinity against adenosine A1 receptor using [3H]CPX in guinea pig DDT membrane; 6250+/-1767
[22] = target: T1, Adenosine receptor A1 (Cavia porcellus); remark: listed apart in the source

SMILES: OC1[C@@H](O)C(n2cnc3c(NC4CCOC4)ncnc32)O[C@@H]1CSc1ccccn1 (single isomer, unassigned)
efficacy relative to CPA [1]: 110% | Ki low [2]: 894 nM

SMILES: OC1[C@@H](O)C(n2cnc3c(NC4CCOC4)ncnc32)O[C@@H]1CSc1nc2ccccc2s1 (single isomer, unassigned)
efficacy relative to CPA [1]: 100% | Ki low [3]: 400 nM

SMILES: Cc1cccc(C)c1SC[C@H]1OC(n2cnc3c(NC4CCOC4)ncnc32)[C@H](O)C1O (single isomer, unassigned)
efficacy relative to CPA [1]: 12% | Ki high [4]: 243 nM | Ki low [5]: 5860 nM

SMILES: OC1[C@@H](O)C(n2cnc3c(NC4CCOC4)ncnc32)O[C@@H]1CSc1ncccn1 (single isomer, unassigned)
efficacy relative to CPA [1]: 89% | Ki low [9]: 913 nM

SMILES: Cc1cccc(Cl)c1SC[C@H]1OC(n2cnc3c(NC4CCOC4)ncnc32)[C@H](O)C1O (single isomer, unassigned)
efficacy relative to CPA [1]: 18% | Ki low [10]: 7290 nM | Ki high [11]: 233 nM

SMILES: OC1[C@@H](O)C(n2cnc3c(NC4CCOC4)ncnc32)O[C@@H]1CSc1ccccc1Cl (single isomer, unassigned)
efficacy relative to CPA [1]: 74% | Ki low [12]: 338 nM | Ki high [13]: 96 nM

SMILES: OC1[C@@H](O)C(n2cnc3c(NC4CCOC4)ncnc32)O[C@@H]1CSc1cccc(F)c1 (single isomer, unassigned)
efficacy relative to CPA [1]: 84% | Ki high [14]: 180 nM | Ki low [15]: 1570 nM

SMILES: Cc1csc(SC[C@H]2OC(n3cnc4c(NC5CCOC5)ncnc43)[C@H](O)C2O)n1 (single isomer, unassigned)
efficacy relative to CPA [1]: 86% | Ki low [8]: > 5000 nM

SMILES: OC1[C@@H](O)C(n2cnc3c(NC4CCOC4)ncnc32)O[C@@H]1COc1ccc(F)cc1 (single isomer, unassigned)
Ki low [19]: 343 nM | efficacy relative to CPA [1]: 71%

SMILES: OC1[C@@H](O)C(n2cnc3c(NC4CCOC4)ncnc32)O[C@@H]1CSc1ccccc1C(F)(F)F (single isomer, unassigned)
CPA [7]: inactive | Ki high [20]: 2400 nM | Ki low [21]: 6250 nM

Second part, the molecule after the results:

efficacy relative to CPA [1]: 84% | Ki low [6]: 4190 nM
SMILES: Cn1ccnc1SC[C@H]1OC(n2cnc3c(NC4CCOC4)ncnc32)[C@H](O)C1O (single isomer, unassigned)

CPA [7]: inactive | Ki low [8]: 4390 nM
SMILES: O[C@@H]1[C@@H](COc2ccccc2F)OC(n2cnc3c(NC4CCCC4)ncnc32)[C@@H]1O (some centres undefined)

efficacy relative to CPA [1]: 100% | Ki low [16]: 19.5 nM | Ki high [17]: 0.8 nM
SMILES: OC[C@H]1O[C@@H](n2cnc3c(NC4CCCC4)ncnc32)[C@H](O)[C@@H]1O

efficacy relative to CPA [1]: 105% | Ki low [18]: 1670 nM
SMILES: COc1ccc2nc(SC[C@H]3OC(n4cnc5c(NC6CCCC6)ncnc54)[C@H](O)[C@@H]3O)sc2c1 (some centres undefined)

efficacy relative to CPA [1]: 112% | Ki low [8]: 1340 nM
SMILES: Cn1ccnc1SC[C@H]1OC(n2cnc3c(NC4CCCC4)ncnc32)[C@H](O)[C@@H]1O (some centres undefined)

efficacy relative to CPA [1]: 90% | Ki low [22]: 287 nM | Ki high [17]: 33 nM
SMILES: O[C@@H]1[C@@H](CSc2ccccc2F)OC(n2cnc3c(NC4CCCC4)ncnc32)[C@@H]1O (some centres undefined)
